In ChEMBL document CHEMBL5321282, “Design, Synthesis, and Biological Evaluation of Esculetin-Furoxan-DEAC Ternary Hybrids for Anti-Triple Negative Breast Cancer” (J Med Chem, 2023):
pIC50: −log10 of the molar value. Active and inactive are the calls of the source. The calls are words filed in the database; no cut-off is given here.

Experiments:
[1] = system: MDA-MB-231; assay: Induction of apoptosis in human MDA-MB-231 cells assessed as necrotic cells at 20 nM incubated for 24 hrs by Annexin V-FITC/PI staining based flow cytometric analysis (reference value: 0.11%); assay type: functional
[2] = Toxicity in BALB/C mouse xenografted with human MDA-MB-231 cells assessed as spleen damage at 2.5 to 5 mg/kg, ip administered every 2 days measured after 3 weeks by H and E staining based analysis; assay type: organism-based; settings: in vivo, 504 h, dose 2.5-5 mg/kg
[3] = Toxicity in BALB/C mouse xenografted with human MDA-MB-231 cells assessed as heart damage at 2.5 to 5 mg/kg, ip administered every 2 days measured after 3 weeks by H and E staining based analysis; assay type: organism-based; settings: in vivo, 504 h, dose 2.5-5 mg/kg
[4] = Drug localization in mitochondria of human MDA-MB-231 cells at 1 uM incubated for 1 hr measured after 40 mins by mito-tracker probe based confocal laser scanning microscopic analysis; assay type: ADME; settings: mda-mb-231, 1.667 h, time 100 min
[5] = Toxicity in BALB/C mouse xenografted with human MDA-MB-231 cells assessed as liver damage at 2.5 to 5 mg/kg, ip administered every 2 days measured after 3 weeks by H and E staining based analysis; assay type: organism-based; settings: in vivo, 504 h, dose 2.5-5 mg/kg
[6] = system: MDA-MB-231; assay: Induction of apoptosis in human MDA-MB-231 cells assessed as increase in Bcl2 level incubated for 8 hrs by Western blotting analysis; assay type: functional, cell-based; settings: dose 5-20 nM
[7] = system: MDA-MB-231; assay: Induction of apoptosis in human MDA-MB-231 cells assessed as late apoptotic cells at 10 nM incubated for 24 hrs by Annexin V-FITC/PI staining based flow cytometric analysis (reference value: 4.90%); assay type: functional
[8] = Toxicity in BALB/C mouse xenografted with human MDA-MB-231 cells assessed as kidney damage at 2.5 to 5 mg/kg, ip administered every 2 days measured after 3 weeks by H and E staining based analysis; assay type: organism-based; settings: in vivo, 504 h, dose 2.5-5 mg/kg
[9] = system: MDA-MB-231; assay: Antitumor activity against human MDA-MB-231 cells xenografted in BALB/C mouse assessed as inhibition of tumor volume at 5 mg/kg, ip administered every 2 days measured after 3 weeks; assay type: functional; set-up: scale not given: the % may be the effect or the level left
[10] = system: MDA-MB-231; assay: Induction of cell cycle arrest in human MDA-MB-231 cells assessed as accumulation of cells at G2 phase at 5 nM measured after 24 hrs by PI staining by flow cytometric analysis (Rvb =18.1%); assay type: functional
[11] = system: MCF7; assay: Antiproliferative activity against human MCF7 cells assessed as inhibition of cell growth measured after 48 hrs by MTT assay; assay type: functional, cell-based; settings: MCF7, 48 h
[12] = system: MDA-MB-231; assay: Induction of apoptosis in human MDA-MB-231 cells assessed as late apoptotic cells at 20 nM incubated for 24 hrs by Annexin V-FITC/PI staining based flow cytometric analysis (reference value: 4.90%); assay type: functional
[13] = system: MDA-MB-231; assay: Induction of apoptosis in human MDA-MB-231 cells assessed as increase in Bad level incubated for 8 hrs by Western blotting analysis; assay type: functional, cell-based; settings: dose 5-20 nM
[14] = Cytotoxicity against human L02 cells assessed as inhibition in cell growth measured after 48 hrs by MTT assay; assay type: toxicity, cell-based
[15] = system: MDA-MB-231; assay: Induction of apoptosis in human MDA-MB-231 cells assessed as viable cells at 20 nM incubated for 24 hrs by Annexin V-FITC/PI staining based flow cytometric analysis (reference value: 90.1%); assay type: functional; settings: read-out: Activity
[16] = Selectivity index, ratio of IC50 for cytotoxicity against human MCF-10A cells to IC50 for antiproliferative activity against human MDA-MB-231 cells; assay type: toxicity, cell-based; settings: MCF-10A cells versus MDA-MB-231 cells, read-out: Ratio IC50
[17] = system: MDA-MB-231; assay: Induction of cell cycle arrest in human MDA-MB-231 cells assessed as accumulation of cells at S phase at 10 nM measured after 24 hrs by PI staining based flow cytometric analysis (Rvb =24.1%); assay type: functional
[18] = system: MDA-MB-231; assay: Induction of ROS production in human MDA-MB-231 cells measured after 24 hrs by DCFH-DA staining based fluorescence microscopic analysis; assay type: functional, cell-based; settings: dose 5-20 nM
[19] = system: MDA-MB-231; assay: Induction of cell cycle arrest in human MDA-MB-231 cells assessed as accumulation of cells at G1 phase at 5 nM measured after 24 hrs by PI staining based flow cytometric analysis (Rvb =58%); assay type: functional
[20] = Toxicity in BALB/C mouse xenografted with human MDA-MB-231 cells assessed as lung damage at 2.5 to 5 mg/kg, ip administered every 2 days measured after 3 weeks by H and E staining based analysis; assay type: organism-based; settings: in vivo, 504 h, dose 2.5-5 mg/kg
[21] = system: MDA-MB-231; assay: Induction of mitochondrial membrane potential depolarization in human MDA-MB-231 cells assessed as increase in green fluorescence at 5 to 20 nM incubated for 24 hrs by JC-1 staining based inverted fluorescent microscopic analysis; assay type: functional, cell-based; settings: dose 5-20 nM
[22] = system: MDA-MB-231; assay: Induction of cell cycle arrest in human MDA-MB-231 cells assessed as accumulation of cells at G1 phase at 10 nM measured after 24 hrs by PI staining based flow cytometric analysis (Rvb =58%); assay type: functional
[23] = Drug localization in mitochondria of human HCT-116 cells at 1 uM incubated for 1 hr measured after 40 mins by mito-tracker probe based confocal laser scanning microscopic analysis; assay type: ADME; settings: hct-116, 1.667 h, time 100 min

Drug uptake [4]: Active
pIC50 [11]: 5.67
Drug uptake [23]: Active
SMILES: CCN(CC)c1ccc2cc(C(=O)OCCCCCOc3cc4ccc(=O)oc4cc3OCCCCCCOc3no[n+]([O-])c3S(=O)(=O)c3ccccc3)c(=O)oc2c1
Activity [1]: 3.93%
Activity [2]: Non-Toxic
Activity [3]: Non-Toxic
Activity [5]: Non-Toxic
Activity [6]: Dose-Dependent Effect
Activity [7]: 30%
Activity [8]: Non-Toxic
Activity [9]: 63.5%
Activity [10]: 12.8%
Activity [12]: 39%
Activity [13]: Dose-Dependent Effect
IC50 at 48 h [14]: 11.9 µM
viability at 0.02 µM [15]: 25.2%
selectivity ratio [16]: > 6250
Activity [17]: 25.9%
Activity [18]: Dose-Dependent Effect
Activity [19]: 55.3%
Activity [20]: Non-Toxic
Activity [21]: Active
Activity [22]: 56%
